{
  "source": "patent US20190375778A1",
  "about": "“ADENOSINE DERIVATIVES FOR USE IN THE TREATMENT OF CANCER” (NuCana plc, priority 2016, published 2019)",
  "key": {"Murine leukemia L1210": {"test_system": "Murine leukemia L1210", "assay": "Cell proliferation (Coulter count) assay, L1210", "format": "cell-based", "conditions": "Mus musculus, 48 h, read-out: absolute IC50, L1210", "source_text": "(§1) Lovo: cell line derived from a metastatic site in a patient with colon cancer MCF7: human oestrogen sensitive mammary epithelial cell line PC3: human prostate cancer cell line A549: cancerous lung tissue derived cells L1210: lymphoblast cell line derived from a mouse with lymphocytic leukaemia FM3A: mammary carcinoma murine cells CEM: human T-lymphoblasts, derived from the blood of a patient with acute lymphoblastic leukaemia HeLa: epithelial cells from a patient with cervical adenocarcinoma\n(§2) Murine leukemia L1210, human T-lymphocyte CEM, and human cervix carcinoma HeLa cells were obtained from the American Type Culture Collection (ATCC) (Rockville, Md.). All cells were maintained in Dulbecco's modified Eagle's medium (DMEM) (Invitrogen, Carlsbad, Calif.) with 10% fetal bovine serum (FBS) (Biochrom AG, Berlin, Germany), 10 mM Hepes, and 1 mM sodiumpyruvate (Invitrogen). Cells were grown at 37° C. in a humidified incubator with a gas phase of 5% CO2. Monolayer cells (HeLa and […]) were seeded in 96-well microtiter plates (Nunc, Roskilde, Denmark) at 10 000 cells/well. After 24 h, an equal volume of fresh medium containing the test compounds was added. On day 5, cells were trypsinized and counted in a Coulter counter (Analis, Suarlee, Belgium). Suspension cells (L1210, CEM) were seeded in 96-well microtiter plates (Nunc) at 60 000 cells/well in the presence of a given amount of the test compounds. The cells were allowed to proliferate for 48 h (L1210) or 72 h (CEM) and were then counted in a Coulter counter. The 50% inhibitory concentration (IC50) was defined as the compound concentration required to reduce cell proliferation by 50%. The cytostatic activity of the compounds was determined after 3 days, as outlined above."}, "KG-1": {"test_system": "KG-1", "assay": "CellTiterGlo viability assay, KG-1", "format": "cell-based", "conditions": "Homo sapiens, KG-1, 72 h, read-out: IC50 KG-1", "experimental": "(§3) In vitro viability assay were performed to assess the effects of compounds on cell viability in selected cell lines over ˜72 hrs using the CellTiterGlo (CTG, Promega-G7573) assay. The tests were performed in duplicates with treatment of compounds at 9 points, 3.16 folds titration in 96 well plates over ˜72 hrs. The compound starting concentrations were 198 μM. Cell viability assay using CellTiterGlo in 96-well plate were performed. Compound treatment 72 hrs, standard growth conditions, duplicates. Compounds were dissolved to 40 mM with thawed […]. Compounds were serially diluted at 3.16 fold in thawed DMSO, and warmed to 37° C. before being dissolved in media (2 μl+200 μl). After compounds were dissolved in media, media containing compounds were warmed to 37° C. in incubator and then compounds in media were added to cell plates (50 μl+50 μl) in duplicates. The compounds' final concentrations were from […] to 19.9 nM. All compound solubilities were checked and recorded again, then the plates were transferred to CO2 tissue culture incubator immediately and incubated for 3 days. DMSO final concentration is 0.5%."}, "HEL92.1.7": {"test_system": "HEL92.1.7", "assay": "CellTiterGlo viability assay, HEL92.1.7", "format": "cell-based", "conditions": "Homo sapiens, HEL 92.1.7, 72 h, read-out: IC50 HEL92.1.7", "experimental": "as §3"}, "K562": {"test_system": "K562", "assay": "CellTiterGlo viability assay, K562", "format": "cell-based", "conditions": "Homo sapiens, K562, 72 h, read-out: IC50 K562", "experimental": "as §3"}, "RL": {"test_system": "RL", "assay": "CellTiterGlo viability assay, RL", "format": "cell-based", "conditions": "Homo sapiens, RL, 72 h, read-out: IC50 RL", "experimental": "as §3"}, "MV4-11": {"test_system": "MV4-11", "assay": "CellTiterGlo viability assay, MV4-11", "format": "cell-based", "conditions": "Homo sapiens, MV4-11, 72 h, read-out: IC50 MV4-11", "experimental": "as §3"}, "CCRFCEM": {"test_system": "CCRFCEM", "assay": "CellTiterGlo viability assay, CCRFCEM", "format": "cell-based", "conditions": "Homo sapiens, CCRF-CEM, 72 h, read-out: IC50 CCRFCEM", "experimental": "as §3"}, "MCF7 [1]": {"test_system": "MCF7", "assay": "CellTiterGlo viability assay, MCF7", "format": "cell-based", "conditions": "Homo sapiens, MCF7, 72 h, read-out: IC50 MCF7", "experimental": "as §3"}, "RPMI-8226": {"test_system": "RPMI-8226", "assay": "CellTiterGlo viability assay, RPMI-8226", "format": "cell-based, Human", "conditions": "Homo sapiens, RPMI-8226, 72 h, read-out: IC50 RPMI-8226", "experimental": "as §3"}, "NCI-H929": {"test_system": "NCI-H929", "assay": "CellTiterGlo viability assay, NCI-H929", "format": "cell-based", "conditions": "Homo sapiens, NCI-H929, 72 h, read-out: IC50 NCI-H929", "experimental": "as §3"}, "human T-lymphocyte CEM": {"test_system": "human T-lymphocyte CEM", "assay": "Cell proliferation (Coulter count) assay, CEM", "format": "cell-based", "conditions": "72 h, read-out: absolute IC50, CEM", "source_text": "as §1, §2"}, "MDAMB231": {"test_system": "MDAMB231", "assay": "CellTiterGlo viability assay, MDAMB231", "format": "cell-based, Human", "experimental": "as §3"}, "HL-60": {"test_system": "HL-60", "assay": "CellTiterGlo viability assay, HL-60", "format": "cell-based", "conditions": "Homo sapiens, HL-60, 72 h, read-out: IC50 HL-60", "experimental": "as §3"}, "[2]": {"test_system": "human cervix carcinoma HeLa cells", "assay": "Cell proliferation (Coulter count) assay, HeLa", "format": "cell-based", "conditions": "120 h, cell count on day 5, read-out: absolute IC50, HeLa", "source_text": "as §1, §2"}, "A549": {"test_system": "A549", "assay": "MTT cytotoxicity assay, A549", "format": "cell-based", "conditions": "Homo sapiens, 96 h compound exposure, read-out: absolute IC50, A549", "source_text": "as §1\n(§4) Anti-tumour evaluation in MCF7, LoVo, A549 and PC3 cell lines was performed by MTT assay. Compounds were prepared as 0.1-100 mM stock solutions dissolved in DMSO and stored at −20° C. Cells were seeded into 96-well microtitre plates at a density of 5×10^3 cells per well and allowed 24 hours to adhere. Decimal compound dilutions were prepared in medium immediately prior to each assay (final concentration 0.1-100 μM). Experimental medium was DMEM+10% FCS (PC3 and Lovo) or RPMI+10% heat inactivated FCS (A549 and MCF7). Following 96 h compound exposure at 37° C., 5% CO2, MTT reagent (Sigma Aldrich) was added to each well (final concentration 0.5 mg/ml). Incubation at 37° C. for 4 h allowed reduction of MTT by viable cells to an insoluble formazan product. MTT was removed and formazan solubilised by addition of 10% Triton X-100 in PBS. Absorbance was read on a Tecan Sunrise spectrophotometer at 540 nm as a measure of cell viability; thus inhibition relative to control was determined (IC50)."}, "MCF7 [3]": {"test_system": "MCF7", "assay": "MTT cytotoxicity assay, MCF7", "format": "cell-based", "conditions": "Homo sapiens, 96 h compound exposure, read-out: absolute IC50, MCF7", "source_text": "as §1, §4"}, "PC3": {"test_system": "PC3", "assay": "MTT cytotoxicity assay, PC3", "format": "cell-based", "conditions": "Homo sapiens, PC-3, 96 h compound exposure, read-out: absolute IC50, PC3", "source_text": "as §1, §4"}, "FM3A": {"test_system": "FM3A", "assay": "Cytotoxicity, FM3A", "format": "cell-based, murine", "conditions": "Mus musculus, read-out: absolute IC50, FM3A", "source_text": "as §1"}, "Lovo": {"test_system": "Lovo", "assay": "MTT cytotoxicity assay, Lovo", "format": "cell-based", "conditions": "Homo sapiens, 96 h compound exposure, read-out: absolute IC50, Lovo", "source_text": "as §1, §4"}},
  "data": [
    {"smiles": "CC(C)C[C@H](NP(=O)(OC[C@H]1O[C@@H](n2c(Cl)nc3c(N)ncnc32)C(O)C1O)Oc1cccc2ccccc12)C(=O)OCc1ccccc1", "note": "(stereo partly drawn) [H, 5′-([(Benzyloxy-L-leucin-N-yl)-naphth-1-yl]-phosphatyl) 8-chloroadenosine]", "values": [
      {"measurement": "IC50", "setting": "Murine leukemia L1210", "value": "5 to 15", "unit": "µM"},
      {"measurement": "IC50", "setting": "KG-1", "value": "5 to 15", "unit": "µM"},
      {"measurement": "IC50", "setting": "HEL92.1.7", "value": "0.1 to 5", "unit": "µM"},
      {"measurement": "IC50", "setting": "K562", "value": "0.1 to 5", "unit": "µM"},
      {"measurement": "IC50", "setting": "RL", "value": "15 to 100", "unit": "µM"},
      {"measurement": "IC50", "setting": "MV4-11", "value": "0.1 to 5", "unit": "µM"},
      {"measurement": "IC50", "setting": "CCRFCEM", "value": "5 to 15", "unit": "µM"},
      {"measurement": "IC50", "setting": "MCF7 [1]", "value": "0.1 to 5", "unit": "µM"},
      {"measurement": "IC50", "setting": "RPMI-8226", "value": "0.1 to 5", "unit": "µM"},
      {"measurement": "IC50", "setting": "NCI-H929", "value": "0.1 to 5", "unit": "µM"},
      {"measurement": "IC50", "setting": "human T-lymphocyte CEM", "value": "0.1 to 5", "unit": "µM"},
      {"measurement": "MI% MDAMB231", "setting": "MDAMB231; CellTiterGlo, 72 hrs", "value": 99, "unit": "%"},
      {"measurement": "IC50", "setting": "MDAMB231; Homo sapiens, MDA-MB-231, 72 h, read-out: IC50 MDAMB231", "value": "5 to 15", "unit": "µM"},
      {"measurement": "IC50", "setting": "HL-60", "value": "5 to 15", "unit": "µM"},
      {"measurement": "IC50", "setting": "[2]", "value": "0.1 to 5", "unit": "µM"}
    ]},
    {"smiles": "C[C@@H](NP(=O)(OC[C@H]1O[C@@H](n2c(Cl)nc3c(N)ncnc32)C(O)C1O)Oc1ccccc1)C(=O)OCc1ccccc1", "note": "(stereo partly drawn) [T, 5′-([(Benzyloxy-D-alanin-N-yl)-phenyl]-phosphatyl) 8-chloroadenosine]", "values": [
      {"measurement": "IC50", "setting": "Murine leukemia L1210", "value": "15 to 100", "unit": "µM"},
      {"measurement": "IC50", "setting": "A549", "value": "15 to 100", "unit": "µM"},
      {"measurement": "IC50", "setting": "MCF7 [3]", "value": "15 to 100", "unit": "µM"},
      {"measurement": "IC50", "setting": "PC3", "value": "0.1 to 5", "unit": "µM"},
      {"measurement": "IC50", "setting": "FM3A", "value": "15 to 100", "unit": "µM"},
      {"measurement": "IC50", "setting": "Lovo", "value": "0.1 to 5", "unit": "µM"},
      {"measurement": "IC50", "setting": "human T-lymphocyte CEM", "value": "15 to 100", "unit": "µM"},
      {"measurement": "IC50", "setting": "[2]", "value": "5 to 15", "unit": "µM"}
    ]},
    {"smiles": "CC(C)(C)COC(=O)C(C)(C)NP(=O)(OC[C@H]1O[C@@H](n2c(Cl)nc3c(N)ncnc32)C(O)C1O)Oc1ccccc1", "note": "(stereo partly drawn) [Y, 5′-([(Neopentyloxy-2,2-dimethylglycin-N-yl)-phenyl]-phosphatyl) 8-chloroadenosine]", "values": [
      {"measurement": "IC50", "setting": "Murine leukemia L1210", "value": "15 to 100", "unit": "µM"},
      {"measurement": "IC50", "setting": "A549", "value": "> 100", "unit": "µM"},
      {"measurement": "IC50", "setting": "MCF7 [3]", "value": "15 to 100", "unit": "µM"},
      {"measurement": "IC50", "setting": "PC3", "value": "0.1 to 5", "unit": "µM"},
      {"measurement": "IC50", "setting": "FM3A", "value": "15 to 100", "unit": "µM"},
      {"measurement": "IC50", "setting": "Lovo", "value": "0.1 to 5", "unit": "µM"},
      {"measurement": "IC50", "setting": "human T-lymphocyte CEM", "value": "15 to 100", "unit": "µM"},
      {"measurement": "IC50", "setting": "[2]", "value": "15 to 100", "unit": "µM"}
    ]},
    {"smiles": "CC(C)[C@H](NP(=O)(OC[C@H]1O[C@@H](n2c(Cl)nc3c(N)ncnc32)C(O)C1O)Oc1ccccc1)C(=O)OCc1ccccc1", "note": "(stereo partly drawn) [AA, 5′-([(Benzyloxy-L-valin-N-yl)-phenyl]-phosphatyl) 8-chloroadenosine]", "values": [
      {"measurement": "IC50", "setting": "Murine leukemia L1210", "value": "15 to 100", "unit": "µM"},
      {"measurement": "IC50", "setting": "A549", "value": "15 to 100", "unit": "µM"},
      {"measurement": "IC50", "setting": "MCF7 [3]", "value": "0.1 to 5", "unit": "µM"},
      {"measurement": "IC50", "setting": "PC3", "value": "15 to 100", "unit": "µM"},
      {"measurement": "IC50", "setting": "FM3A", "value": "15 to 100", "unit": "µM"},
      {"measurement": "IC50", "setting": "Lovo", "value": "0.1 to 5", "unit": "µM"},
      {"measurement": "IC50", "setting": "human T-lymphocyte CEM", "value": "15 to 100", "unit": "µM"},
      {"measurement": "IC50", "setting": "[2]", "value": "5 to 15", "unit": "µM"}
    ]}
  ]
}
